{"source": "patent US7189722B2", "about": "“Aryl spirohydantoin CGRP receptor antagonists” (Merck & Co., Inc., priority 2003, dated 2007)", "origin": "cited, not measured here", "key": {"[1]": {"system": "middle meningeal artery diameter", "conditions": "rats, electrical stimulation of the dura mater, prior administration (Williamson et al. 1997)"}, "facial blood flow [2]": {"system": "facial blood flow", "conditions": "rat, trigeminal ganglion stimulation (Escott et al. 1995)"}, "facial blood flow [3]": {"system": "facial blood flow", "conditions": "marmoset, electrical stimulation of the trigeminal ganglion (Doods et al. 2000)"}}, "note": "Like-named read-outs stand apart in the source and are kept apart here. Ends that are not written are not given here.", "data": [{"molecule": "CGRP(8-37): a peptide CGRP antagonist (VTHRLAGLLSRSGGVVKNNFVPTNVGSKAF; ends and bridges not checked; UniProt P06881 90-119, looked up, fragment)", "values": [{"measurement": "effect on increase of middle meningeal artery diameter", "setting": "[1]", "value": "blocked"}, {"measurement": "effect on increase of facial blood flow", "setting": "facial blood flow [2]", "value": "inhibited"}]}, {"molecule": "NCCCC[C@H](NC(=O)[C@@H](Cc1cc(Br)c(O)c(Br)c1)NC(=O)N1CCC(N2Cc3ccccc3NC2=O)CC1)C(=O)N1CCN(c2ccncc2)CC1", "note": "[BIBN4096BS]", "values": [{"measurement": "effect on increase of facial blood flow", "setting": "facial blood flow [3]", "value": "blocked"}]}]}
